Measured values: ChEMBL document CHEMBL1201862, “PubChem BioAssay data set” (2004)
Values belong to the compound of their own block, whether it stands above or below them. Active and inactive are the calls of the source.

Assays:
[1] = target: Eukaryotic translation initiation factor 4E (Mus musculus, UniProt P63073); experiment: blockers of eIF4G binding by eIF4E – biochemical, TR-FRET, dose response (AID 855); assay type: functional;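 also: potency for disrupting eIF4E binding to eIF4GI seen as loss of FRET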
Chain of Eukaryotic translation initiation factor 4E (P63073 whole entry): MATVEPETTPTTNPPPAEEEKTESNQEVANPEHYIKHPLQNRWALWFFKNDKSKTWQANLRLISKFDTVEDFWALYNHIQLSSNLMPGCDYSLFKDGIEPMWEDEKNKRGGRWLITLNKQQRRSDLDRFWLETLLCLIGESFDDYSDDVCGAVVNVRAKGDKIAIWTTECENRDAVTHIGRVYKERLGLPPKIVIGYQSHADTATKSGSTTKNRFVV

[2] = target: Ras and Rab interactor 1/Tyrosine-protein kinase ABL1 (Homo sapiens, UniProt P00519+Q13671); assay type: functional;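 also: biochemical TR-FRET dose-response test measuring inhibition of binding between Rin1 and Abl proteins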
Chain of Ras and Rab interactor 1/Tyrosine-protein kinase ABL1 (P00519 whole entry): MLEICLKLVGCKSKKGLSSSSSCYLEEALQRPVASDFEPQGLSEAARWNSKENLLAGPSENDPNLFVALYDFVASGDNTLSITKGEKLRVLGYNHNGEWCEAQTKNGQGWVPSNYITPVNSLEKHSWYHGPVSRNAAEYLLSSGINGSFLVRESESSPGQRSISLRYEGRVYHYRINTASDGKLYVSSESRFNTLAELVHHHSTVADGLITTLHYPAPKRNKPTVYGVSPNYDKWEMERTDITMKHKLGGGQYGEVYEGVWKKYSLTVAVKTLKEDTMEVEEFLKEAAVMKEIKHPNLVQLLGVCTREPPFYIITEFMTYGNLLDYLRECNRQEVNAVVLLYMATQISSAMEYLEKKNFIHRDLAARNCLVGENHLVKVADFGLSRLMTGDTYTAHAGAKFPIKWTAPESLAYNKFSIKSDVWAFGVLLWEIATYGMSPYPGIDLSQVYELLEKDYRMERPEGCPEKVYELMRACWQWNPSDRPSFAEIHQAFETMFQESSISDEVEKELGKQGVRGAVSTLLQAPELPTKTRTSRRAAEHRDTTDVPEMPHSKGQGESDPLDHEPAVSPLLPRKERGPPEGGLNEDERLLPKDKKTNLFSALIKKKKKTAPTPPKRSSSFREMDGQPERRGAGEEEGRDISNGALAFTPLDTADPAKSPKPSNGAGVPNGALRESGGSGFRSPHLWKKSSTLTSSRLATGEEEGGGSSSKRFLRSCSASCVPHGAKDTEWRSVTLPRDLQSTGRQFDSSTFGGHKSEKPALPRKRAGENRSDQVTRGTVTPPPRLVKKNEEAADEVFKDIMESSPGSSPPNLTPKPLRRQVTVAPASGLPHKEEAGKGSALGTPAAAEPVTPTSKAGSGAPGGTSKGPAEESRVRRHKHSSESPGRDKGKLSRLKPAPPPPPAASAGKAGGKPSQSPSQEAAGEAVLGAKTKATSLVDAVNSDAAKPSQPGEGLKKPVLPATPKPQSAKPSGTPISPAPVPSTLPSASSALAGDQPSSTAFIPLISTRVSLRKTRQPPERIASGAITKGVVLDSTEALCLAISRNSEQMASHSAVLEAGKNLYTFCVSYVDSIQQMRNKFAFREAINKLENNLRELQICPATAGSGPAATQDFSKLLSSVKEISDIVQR
Chain of Ras and Rab interactor 1/Tyrosine-protein kinase ABL1 (Q13671 whole entry): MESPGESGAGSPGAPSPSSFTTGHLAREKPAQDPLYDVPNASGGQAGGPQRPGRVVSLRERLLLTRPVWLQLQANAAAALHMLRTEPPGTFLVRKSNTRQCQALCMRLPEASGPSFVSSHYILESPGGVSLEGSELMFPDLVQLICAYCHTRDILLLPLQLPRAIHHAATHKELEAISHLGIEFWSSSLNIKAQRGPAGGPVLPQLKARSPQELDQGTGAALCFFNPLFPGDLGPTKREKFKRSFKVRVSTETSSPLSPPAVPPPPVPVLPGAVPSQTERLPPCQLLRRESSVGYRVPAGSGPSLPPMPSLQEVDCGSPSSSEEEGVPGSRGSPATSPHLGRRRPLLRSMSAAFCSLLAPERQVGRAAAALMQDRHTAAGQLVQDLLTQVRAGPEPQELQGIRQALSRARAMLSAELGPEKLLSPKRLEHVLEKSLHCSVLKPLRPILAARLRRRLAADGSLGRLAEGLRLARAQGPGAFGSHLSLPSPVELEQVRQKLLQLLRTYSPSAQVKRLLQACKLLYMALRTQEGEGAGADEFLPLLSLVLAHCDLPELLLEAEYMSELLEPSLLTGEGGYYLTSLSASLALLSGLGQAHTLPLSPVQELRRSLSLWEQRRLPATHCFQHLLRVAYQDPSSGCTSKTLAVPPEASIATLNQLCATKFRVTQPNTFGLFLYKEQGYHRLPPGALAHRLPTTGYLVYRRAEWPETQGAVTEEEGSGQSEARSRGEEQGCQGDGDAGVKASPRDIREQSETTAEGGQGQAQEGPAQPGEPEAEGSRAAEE

Escherichia coli = experiment: microbe, parasite or virus in culture
[3] = reduction of Shn3 3'UTR-driven luciferase in osteoblasts – cell-based, Clone20 osteoblasts, firefly luciferase, cherry-picked, dose response (AID 624132); assay type: functional;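 also: firefly luciferase luminescence from reporter carrying the Shn3 3'UTR in osteoblasts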
[4] = loss of viability in HepG2 cells – cell-based, CellTiter-Glo, cherry-picked, cytotoxicity control for Shn3 inhibitor project, dose response (AID 624134); assay type: functional
[5] = non-specific 3'UTR reporter inhibition in Clone20-Shn3RL – cell-based, Renilla luciferase, cherry-picked, counter-screen for Shn3 inhibitor project, dose response (AID 624133); assay type: functional
Paired box protein Pax-8 = Paired box protein Pax-8 (Homo sapiens, UniProt Q06710); experiment: PAX8 transcriptional activity inhibition in RMG-I – RMG-I cells, luciferase, cherry-pick, dose response (AID 687027); assay type: functional, cell-based;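 also: luciferase reporter driven by Pax8 target thyroperoxidase promoter measured by SteadyGlo luminescence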
Chain of Paired box protein Pax-8 (Q06710 whole entry): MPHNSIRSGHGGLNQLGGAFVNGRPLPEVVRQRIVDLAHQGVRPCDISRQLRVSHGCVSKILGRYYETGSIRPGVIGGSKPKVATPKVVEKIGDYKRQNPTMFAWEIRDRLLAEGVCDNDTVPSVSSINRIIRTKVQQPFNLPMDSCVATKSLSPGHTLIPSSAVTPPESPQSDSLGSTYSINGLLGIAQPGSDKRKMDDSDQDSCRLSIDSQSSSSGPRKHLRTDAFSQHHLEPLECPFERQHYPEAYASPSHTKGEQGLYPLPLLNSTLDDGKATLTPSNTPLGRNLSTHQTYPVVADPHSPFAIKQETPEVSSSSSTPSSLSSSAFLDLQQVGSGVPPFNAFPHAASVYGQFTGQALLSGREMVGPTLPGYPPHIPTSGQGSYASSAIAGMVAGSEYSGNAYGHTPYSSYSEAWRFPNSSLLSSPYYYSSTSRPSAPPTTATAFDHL

[6] = general cell-killing toxicity readout – plate reader, dry powder samples, cytotoxicity control for PAX8 inhibitor project, dose response (AID 743021); assay type: functional, cell-based
[7] = target: T1, Low molecular weight phosphotyrosine protein phosphatase (Homo sapiens, UniProt P24666); assay type: functional; conditions: read-out: IC50_Mean;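 also: Dose-response confirmation assay measuring inhibition of LMPTP enzyme activity by fluorescence intensity read-out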
T1 sequence (P24666 whole entry): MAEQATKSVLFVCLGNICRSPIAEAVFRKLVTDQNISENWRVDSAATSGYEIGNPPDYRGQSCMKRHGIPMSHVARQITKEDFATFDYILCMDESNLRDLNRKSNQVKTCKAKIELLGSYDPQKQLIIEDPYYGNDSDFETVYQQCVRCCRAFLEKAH

cells [8] = assay type: functional, cell-based
cells [9] = assay type: functional, cell-based; remark: listed apart in the source
P388/ADR = experiment: cells; assay type: functional; conditions: Mus musculus
SN12K1 = experiment: cells; assay type: functional; conditions: Homo sapiens
P388 = experiment: cells; assay type: functional; conditions: Mus musculus
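For EC50 in this document: agonist potency from rise in intracellular calcium fluorescence.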

- IC50 [1]: > 64 µM (inactive)
SMILES: Nc1nnc(CC(=O)N2CCCCC2)s1

- IC50 [2]: 2.39 µM (active)
SMILES: CCOC(=O)CCCCC(=O)c1[nH]c(=O)[nH]c1CSc1nc(C)cc(C)n1

SMILES: CS(=O)(=O)c1ccc(Cl)c(NC(=O)COC(=O)CCc2c[nH]c3ccccc23)c1
- AC50 (Escherichia coli): 31.5 µM (active)

SMILES: COC1CC2C=C(C)C=CC=CC(=O)NC(c3ccccc3)CC=CCCC(O)CC(O)=C2C1=O (stereo not drawn)
- AC50 [3]: 0.629 µM (active)
- AC50 [4]: 3.98 µM (active)
- AC50 [5]: 1.48 µM (active)
- AC50 (Paired box protein Pax-8): 0.673 µM (active)
- AC50 [6]: 4.97 µM (active)

SMILES: COc1ccc(OC)c(N(CCN2C(=O)c3ccccc3C2=O)C(=O)CCl)c1
- AC50 (Paired box protein Pax-8): 0.966 µM (active)
- AC50 [6]: 2.34 µM (active)

- IC50 [2]: 2.94 µM (active)
SMILES: O=C(c1cc(COc2cccc3cccnc23)on1)N1CCC[C@H]1CO

- IC50 [7]: 16.2 µM (active)
SMILES: O=C(O)c1ccc(/C=N/NC(=O)c2cc3c(ccc4ccccc43)o2)cc1

- IC50 [1]: > 64 µM (inactive)
SMILES: O=[N+]([O-])c1cccc(-c2ccc(/C=N/n3c(S)nnc3-c3ccccc3)o2)c1

SMILES: CN(C)S(=O)(=O)c1ccc(C(=O)NCC(=O)N/N=C/c2ccccc2)cc1
- IC50 (cells [8]): > 29.9 µM (inactive)
- EC50 (cells [9]): > 29.9 µM (inactive)

SMILES: NCc1c(O)ccc2ccccc12
- IC50 (cells [8]): > 29.9 µM (inactive)
- EC50 (cells [9]): > 29.9 µM (inactive)

SMILES: C[C@H](N)C(=O)N[C@@H]1[C@H]2C(=C(O)C[C@@H](O)[C@@H]2O)C(=O)O[C@]1(C)C(Cl)Cl [BACTOBOLIN]
- GI50 (P388/ADR): 0.303 µM (active)
- GI50 (SN12K1): 0.297 µM (active)
- GI50 (P388): 0.0807 µM (active)

SMILES: O=P1(NCCCl)OCCCN1CCCl (stereo not drawn) [IFOSFAMIDE]
- GI50 (P388/ADR): 215 µM (inactive)
- GI50 (SN12K1): 371 µM (inactive)
- GI50 (P388): 232 µM (inactive)
